The text below walks through data of patent US7074807B2, “Compositions and methods for inducing cell death” (Georgetown University, priority 1998, dated 2006).

The conditions of data set [1]: Kocherginsky et al., 1995; cited from earlier work.
Data set [2] deals with MDA-MB231 human breast tumor xenografts. The data set can be described thus: Tumor growth study, MDA-MB231 breast tumor xenografts in athymic mice. In kind it is in vivo. Conditions: 200 mg/kg intratumoral once daily for 8 days, vs 10% ethanol vehicle group. Here is the method:
FIGS. (13A), (13B1–13B2) illustrates the effects of tempo on the growth of human breast tumor xenografts in athymic mice. 13A. Tempo (200 mg/kg) was administered intratumorally once daily for a total of 8 days (*). Control group was treated simultaneously with an equal volume of ethanol (10%). Experiment was terminated when the control tumor volumes exceeded the recommended tumor burden. Each point represents mean q S.E. (n=4). […] (13B1–13B2). Representative tumor-bearing mice. Mice were treated with 10% ethanol (13B1) or tempo (13B2) as explained above.
MDA-MB231 cells (1×10^6) were inoculated subcutaneously in the right flank of 4–6 week-old female athymic mice. Tumor growth was monitored biweekly. Mice bearing tumor volumes in the range of 80–100 mm^3 were randomly selected for treatment. Tempo treatment was initiated (50 mg/kg–200 mg/kg, intratumoral, once daily, for a total of 8 days), and tumor volumes were measured for a total 25 days from the start of treatment.

The test system of a further data set is LNCaP cells. The data set can be described thus: Light and transmission electron microscopy of LNCaP cells. In kind it is cell-based, human. Here is the method:
LNCaP cells ([…]) were seeded in 25 cm2 tissue culture flasks in RPMI medium containing 10% BCS overnight, followed by change to RPMI medium containing 5% BCS stimulation with 0.1% ethanol (control, 11A1, 11B1) or tempo (2.5 mM, 11A2, 11B2) for indicated times.
12A1, untreated, 4,000×; 12A2, a portion of the cell shown in 12A1, 20,000×; 12B1, 0.1% ethanol, 24 hr, 4,000×; 12B2, a portion of the cell shown in 12B1, 20,000×; 12C1, 5 mM tempo, 24 hr, 4,000×; 12C2, a portion of the cell shown in 12C1, […]; 12D, 5 mM tempo, 24 hr, a portion of another cell, 20,000×. M, mitrochondria; G, golgi apparatus; RER, rough endoplasmic reticulum; Cy, cytoplasm; N, nucleus; Arrow in panel C2 indicates swelling in the nuclear membrane.
LNCaP cells were treated with tempo as described in legend to FIG. 2. Following treatment, monolayer cells were washed three times with PBS, and fixed in 2.5% glutaraldehyde/3% paraformaldehyde in PBS. After fixation, the cell monolayer was washed in PBS. The cells were collected by gentle scraping using a rubber policeman, and centrifuged. The pellet was embedded in 1% agarose to facilitate handling. Post-fixation was performed in 1% osmium tetroxide in distilled water for 1 hr, followed by washing three times in distilled water, enbloc staining with 2% uranyl acetate for 30 min in dark, and washing three times in distilled water. […]

Data set [3] in a line: Apoptosis assay (annexin V-FITC/propidium iodide flow cytometry). The following applies: human. Here is the method:
(§1) FIGS. (7A1–7A3), (7B1–7B2), (7C1–7C3), (7D1–7D2), (7E1–7E3), (7F1–7F2). […] Cells were grown in serum-free medium overnight in T-25 flasks and treated with tempol (10 mM) or tempo (10 mM) for various times, trypsinized, and then resuspended in 200 ul 1× binding buffer as described in experimental procedures. The cell suspension was double-stained with annexin V-FITC and propidium iodide and analyzed by flow cytometry. Background signal was determined by comparison with double-stained, single-stained, or unstained control cells. (7A1–7A3), (7C1–7C3), and (7E1–7E3) are cytograms showing a relative distribution of viable (V), apoptotic (A), and necrotic (N) cells at 2 h following tempol or tempo treatment of MDA-MB 231 cells (A), PCI-04A cells (C), and PC-3 cells (E). (7B1–7B3), (7D1–7D2), and (7F1–7F2) are time course analyses of MDA-MB 231 cells (B), PCT-04A cells (D), and PC-3 cells (F). 100,000 cells were analyzed at each time point in triplicate (B) or quadruplicate (D and F). Solid bars, 1% ethanol, striped bars, 10 mM tempol, empty bars, 10 mM tempo. […] Data shown are representative from three to four independent experiments. (7B1–7B2), Time course analysis of MDA-MB 231 cells undergoing apoptosis (annexin V-FITC staining) (7B1), or necrosis (propidium iodide staining) (7B2). Values shown are mean±s.d. of triplicate determinations per time point in each treatment category, and representative of three to four independent experiments. […] (7D1–7D2), Time course analysis of PCI-04A cells undergoing apoptosis (annexin V-FITC staining) (7D1), or necrosis (propidium iodide staining) (7D2). Values shown are mean±s.d. of quadruplicate determinations per time point in each treatment category. […] (7F1–7F2), Time course analysis of PC-3 cells undergoing apoptosis (annexin V-FITC staining) (7F1), or necrosis (propidium iodide staining) (7F2). Values shown are mean±s.d. of quadruplicate determinations per time point in each treatment category. Control/C, cells treated with 1% ethanol for 2 h.
(§2) Apoptosis Assay—ApoAlert Annexin V apoptosis detection system (Clontech Lab Inc., Palo Alto, Calif.) was used to measure the relative distribution of apoptotic and necrotic cells. Briefly, cells were seeded at a density of 1×10^6 cells per 25 cm^2 tissue culture flask in medium containing 10% FBS overnight, followed by washing twice in serum-free medium. Cells were maintained overnight in serum-free medium and exposed to tempol (10 mM) or tempo (10 mM) for various times. This was followed by rinsing twice with serum-free medium prior to trypsinization, dilution in two volumes of serum-free medium, and centrifugation at 10,000× g. The cell pellet was washed once with PBS and resuspended in 200 ul of 1× binding buffer. The cell suspension was double-labeled with fluorescein isothiocyanate (FITC)-labeled annexin V (10 ul) and propidium iodide (PI) (10 ul) according to the manufacturer's instructions. Unlabeled cells or untreated cells labeled with either FITC-annexin V or PI, or double-labeled served as internal controls for the background signal. The intensity of the dye uptake by cells was detected using FACStar plus Flow Cytometer (Becton Dickerson, Lincoln Park, N.J.), and data were analyzed using Reproman True Facts software (Seattle, Wash.). Viable cells were FITC−/PI−, apoptotic cells were FITC+/PI−, and necrotic cells were FITC+/PI+.
Background: A flow cytometer gives signals particle by particle.

The nature of data set [4]: Apoptosis assay (annexin V-FITC/propidium iodide flow cytometry), serum-free. Conditions: human. As for the experimental part:
as §1
Apoptosis Assay—ApoAlert Annexin V apoptosis detection system (Clontech Lab Inc., Palo Alto, Calif.) was used to measure the relative distribution of apoptotic and necrotic cells. Briefly, cells were seeded at a density of 1×10^6 cells per 25 cm^2 tissue culture flask in medium containing 10% FBS overnight, followed by washing twice in serum-free medium. Cells were maintained overnight in serum-free medium and exposed to tempol (10 mM) or tempo (10 mM) for various times. […] The intensity of the dye uptake by cells was detected using FACStar plus Flow Cytometer (Becton Dickerson, Lincoln Park, N.J.), and data were analyzed using Reproman True Facts software (Seattle, Wash.). […]

Data set [5] in a line: Apoptosis assay (annexin V-FITC/propidium iodide flow cytometry). The following applies: human. Here is the method: as §1, §2
This is another data set of the same source.

Take `CC1(C)CCCC(C)(C)N1[O]` [tempo, 2,2,6,6-tetramethylpiperidine-N-oxyl]: the “lipophilicity relative to tempol” value in data set [1] was “approximately 200 times”. For the same molecule, in the data set “Tolerated dose in mice”, the intratumoral tolerance entry is on record as “over 200 mg/kg”. For the same molecule, the tumor growth rate entry in data set [2] is “significant decline in tumor growth rate”. The “cell morphology at the light microscopic level” value with LNCaP cells (2.5 mM) was “distinct change in cell morphology from spindle shaped, highly refractile appearance to a more flattened appearance”. The “cells with pronounced vacuolation throughout the cytoplasm” value with LNCaP cells (electron microscopy, 5 mM, 24 hr) was “more than 90%”.

What is called viability is a read-out of living cells in per cent, often relative to untreated cells. A high value points to less harm to the cells. `CC1(C)CC(O)CC(C)(C)N1[O]` [tempol, 4-hydroxy-tempo, reference compound]: the viability at 2 h, 10 mM in data set [3] was determined as 92.3%; in data set [4] it was 95.8%; in data set [5], 89.8%.
